Data: patent US20160009693A1, “HERBICIDAL COMPOUNDS” (SYNGENTA LIMITED, priority 2013, published 2016)

Columns and labels:
Assay type in all cases: in vivo
Details in all cases: applied at 1000 g/h, evaluated after 13 days
[1] = system: Alopecurus myosuroides (ALOMY); test: Herbicidal glasshouse test, pre-emergence, ALOMY
[2] = system: Setaria faberi (SETFA); test: Herbicidal glasshouse test, pre-emergence, SETFA
[3] = system: Echinochloa crus-galli (ECHCG); test: Herbicidal glasshouse test, pre-emergence, ECHCG
In short: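 In this pre-emergence glasshouse test, ECHCG seeds sown in pots of standard soil were sprayed one day after sowing with the test material in acetone/water (50:50) containing 0.5% Tween 20. Plants were kept at 24/16° C., 14 hours light, 65% humidity, and watered twice daily. Percentage damage was rated after 13 days on a 1–5 scale.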

[4] = system: Solanum nigrum (SOLNI); test: Herbicidal glasshouse test, pre-emergence, SOLNI
In short: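 This pre-emergence glasshouse herbicide test used Solanum nigrum sown in standard soil. One day after sowing, pots were sprayed with the compound in acetone/water (50:50) with 0.5% Tween 20. They were then grown at 24/16° C., with 14 hours light and 65% humidity, and watered twice daily. Percentage damage was scored after 13 days on a five point scale, where 5=80-100% and 1=0-19%.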

[5] = system: Amaranthus retoflexus (AMARE); test: Herbicidal glasshouse test, pre-emergence, AMARE
In short: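 This pre-emergence glasshouse herbicide test used Amaranthus retoflexus sown in standard soil. After one day of cultivation, an aqueous spray made from the technical ingredient in 50:50 acetone/water with 0.5% Tween 20 was applied. Pots stayed at 24/16° C., 14 hours light, 65% humidity, with twice-daily watering. Damage was rated on a five point scale (1=0-19% up to 5=80-100%).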

[6] = system: Ipomoea hederacea (IPOHE); test: Herbicidal glasshouse test, pre-emergence, IPOHE
[7] = system: Alopecurus myosuroides (ALOMY); test: Herbicidal glasshouse test, post-emergence, ALOMY
[8] = system: Setaria faberi (SETFA); test: Herbicidal glasshouse test, post-emergence, SETFA
In short: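 This post-emergence glasshouse herbicide test used potted Setaria faberi. Plants were cultivated for 8 days under controlled conditions (24/16° C. day/night, 14 hours light, 65% humidity) and then treated with an aqueous spray made from an acetone/water (50:50) solution containing 0.5% Tween 20. After 13 days of further growth with twice-daily watering, damage was rated on a five point scale (5=80-100%; 1=0-19%).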

[9] = system: Echinochloa crus-galli (ECHCG); test: Herbicidal glasshouse test, post-emergence, ECHCG
In short: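 In this post-emergence glasshouse test, barnyard grass (ECHCG) was cultivated for 8 days under controlled conditions (24/16° C. day/night, 14 hours light, 65% humidity). It was then sprayed with an aqueous solution of the technical compound in acetone / water (50:50) with 0.5% Tween 20. Plants were kept under the same conditions and watered twice daily. After 13 days, percentage damage was rated on a five point scale (5=80-100%; 1=0-19%).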

[10] = system: Solanum nigrum (SOLNI); test: Herbicidal glasshouse test, post-emergence, SOLNI
[11] = system: Amaranthus retoflexus (AMARE); test: Herbicidal glasshouse test, post-emergence, AMARE
In short: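 This post-emergence glasshouse test used AMARE plants raised in standard soil for 8 days under controlled conditions (24/16° C. day/night, 14 hours light, 65% humidity). Foliage was sprayed with formulated compound in acetone/water (50:50) containing 0.5% Tween 20. Plants were then watered twice daily, and after 13 days percentage damage was rated on a five point scale.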

[12] = system: Ipomoea hederacea (IPOHE); test: Herbicidal glasshouse test, post-emergence, IPOHE

| SMILES | PRE Application ALOMY, percentage damage (five point scale) [1] | PRE Application SETFA, percentage damage (five point scale) [2] | PRE Application ECHCG, percentage damage (five point scale) [3] | PRE Application SOLNI, percentage damage (five point scale) [4] | PRE Application AMARE, percentage damage (five point scale) [5] | PRE Application IPOHE, percentage damage (five point scale) [6] | POST Application ALOMY, percentage damage (five point scale) [7] | POST Application SETFA, percentage damage (five point scale) [8] | POST Application ECHCG, percentage damage (five point scale) [9] | POST Application SOLNI, percentage damage (five point scale) [10] | POST Application AMARE, percentage damage (five point scale) [11] | POST Application IPOHE, percentage damage (five point scale) [12] |
| --- | --- | --- | --- | --- | --- | --- | --- | --- | --- | --- | --- | --- |
| Cn1nnnc1NC(=O)c1nn(C)c(=O)n(Cc2cccc(F)c2C(F)(F)F)c1=O [Compound 1.076] | 5 (5=80-100%) | 5 (5=80-100%) | 5 (5=80-100%) | 5 (5=80-100%) | 5 (5=80-100%) | 5 (5=80-100%) | 5 (5=80-100%) | 5 (5=80-100%) | 5 (5=80-100%) | 5 (5=80-100%) | 5 (5=80-100%) | 5 (5=80-100%) |
| COc1ccc(F)c(Cn2c(=O)c(C(=O)Nc3nnnn3C)nn(C)c2=O)c1Cl [Compound 1.077] | 4 (4=60-79%) | 2 (2=20-39%) | 4 (4=60-79%) | 4 (4=60-79%) | 3 (3=40-59%) | 4 (4=60-79%) | 4 (4=60-79%) | 2 (2=20-39%) | 4 (4=60-79%) | 4 (4=60-79%) | 3 (3=40-59%) | 4 (4=60-79%) |
| Cc1cc(Cn2c(=O)c(C(=O)Nc3nnnn3C)nn(C)c2=O)cc(C)c1F [Compound 1.078] | 2 (2=20-39%) | 1 (1=0-19%) | 2 (2=20-39%) | 5 (5=80-100%) | 5 (5=80-100%) | 2 (2=20-39%) | 2 (2=20-39%) | 2 (2=20-39%) | 4 (4=60-79%) | 5 (5=80-100%) | 5 (5=80-100%) | 5 (5=80-100%) |
| Cn1nnnc1NC(=O)c1nn(C)c(=O)n(Cc2cccc(C(F)F)c2)c1=O [Compound 1.079] | 5 (5=80-100%) | 1 (1=0-19%) | 5 (5=80-100%) | 5 (5=80-100%) | 5 (5=80-100%) | 4 (4=60-79%) | 4 (4=60-79%) | 2 (2=20-39%) | 5 (5=80-100%) | 5 (5=80-100%) | 5 (5=80-100%) | 5 (5=80-100%) |
| Cn1nnnc1NC(=O)c1nn(C)c(=O)n(Cc2ccc(SC(F)(F)F)cc2)c1=O [Compound 1.080] | 5 (5=80-100%) | 5 (5=80-100%) | 5 (5=80-100%) | 5 (5=80-100%) | 5 (5=80-100%) | 5 (5=80-100%) | 5 (5=80-100%) | 5 (5=80-100%) | 4 (4=60-79%) | 5 (5=80-100%) | 5 (5=80-100%) | 5 (5=80-100%) |
